Test results as given in US10125160B1, “Method of making cobalt and platinum based surfactants and using for cancer therapy” (Umm Al-Qura University, priority 2015, dated 2018).

Assays:
[1] = tested on: MCF7 (Breast carcinoma); experiment: Potential cytotoxicity by SRB assay, MCF7; assay type: cell-based, human
Protocol: (§1) Potential cytotoxicity of the complex was tested using the method of Skehan et al. (1990). The tumor cell lines: MCF7 (Breast carcinoma), HEPG2 (liver carcinoma), (10^4 cells/well) had been supplied from National Cancer Institute Cairo Egypt, were plated in 96-multiwell plat for 24 h before treatment with the compounds to allow attachment of cell to the wall of the plate.
(§2) Different concentrations of the complexes under test (0, 1, 2.5, Sand 10 μg/ml) were added to the cell-monolayer (parent complex, parent complex with Co, parent complex with Pt). Triplicate wells were prepared for each individual dose. Monolayer cells were incubated with the complex for 48 h at 37 C° and in atmosphere of 5% CO2. After 48 h, Cells were fixed, washed and stained with Sulfurhodamine B stain. Excess stain was washed with acetic acid and attached stain was recovered with Tris EDTA buffer. Color intensity was measured in an ELISA reader. […]
(§3) Cobalt and Platinum benzidinium hydrogen selenite complexes as well as their parent were investigated as potential selective, anticancer drugs. […] The results of the cytotoxic activity on human tumor cell lines were determined according to the dose values of drug exposure for cell lines to reduce survival to 50% (Ic50). The experimental results recorded in Table (5) and plots of surviving fraction versus concentration in μg in FIGS. 2, 3).

[2] = tested on: HEPG2 (liver carcinoma); experiment: Potential cytotoxicity by SRB assay, HEPG2; assay type: cell-based, human
Protocol: as §1, §2, §3

[3] = Surface tension and critical micelle concentration (Du-Nouy tensiometer); assay type: physicochemical; design: PC20: unit not given here
Protocol: Surface tension values of the synthesized complex solutions (parent complex, parent complex with Co, parent complex with Pt) were obtained at 30îC using Du-Nouy Tensiometer (Kruss K6 Type 4851) with a platinum ring. Apparent surface tension was measured about five times for the sample within 2 min interval between each reading. The averages of five determinations were plotted against −log C without any correction. The critical micelle concentration values were determined from the plot of surface tension versus concentration.
Table 4 summarizes the surface-active parameters such as critical micelle concentration (CMC), γCMC, and pC20 (the surfactant concentration required to reduce the surface tension of the solvent by 20 mN/m) determined from the curves of FIG. 1. Values of Γmax (the surface excess concentration of surfactant) and Amin (interfacial area occupied by the surfactant molecules) were calculated using the Gibbs adsorption equation:
Where (δγ/δ log C) is the maximum slope in each case; T is absolute temperature; R=[…] and N is Avogadro's number. The standard free energy of micellization (ΔG°mic) is calculated from the equation: ΔG°mic=RT in CMC (Eq 7)
The standard free energy of adsorption (ΔG°ads) is calculated according to the following equation: ΔG°ads=ΔG°mic−ΠCMCAmin (Eq 8)

[4] = SRB assay, 48 h, dose reducing survival to 50%
[5] = in vitro on the tumor cell line investigated
[6] = calculated using Gibbs adsorption equation

For CCCCCCCCCC(=O)Nc1ccc(-c2ccc(N)cc2)cc1.O=[Se](O)O [parent, N-decanoylbenzidinum hydrogen selenite], the “MCF7 (IC50)” value [1, 4] was “−Ve”, the “cytotoxic activity in words, MCF7” value [1, 5] was “no effect” and the “HEPG2 (IC50)” value [2, 4] was “−Ve”. For the same compound, the “cytotoxic activity in words, HEPG2” value [2, 5] was “no effect”, the ΠCMC [3] was 33 mN/m and the “Amin (interfacial area occupied by surfactant molecules)” value [3, 6] was 1.80 nm^2. For the same compound, the “Γmax × 10^−11 (surface excess concentration)” value [3, 6] was 9.1 × 10^−11 Mole/cm^2, the “ΔGmic (standard free energy of micellization)” value ([3]; calculated, Eq 7) was −27.64 KJ\mol and the “ΔGads (standard free energy of adsorption)” value ([3]; calculated, Eq 8) was −64.21 KJ\mol. For the same compound, the “CMC × 10^−3 (critical micelle concentration)” value ([3]; from plot of surface tension versus concentration) was 3.76 × 10^−3, the γCMC ([3]; surface tension at CMC) was 39 mN/m and the PC20 ([3]; surfactant concentration required to reduce surface tension of solvent by 20 mN/m) was 3.50.
